Laboratory results taken from patent US20260306500A1, “METHOD OF INHIBITING ADENOSINE TRIPHOSPHATE SECRETION, METHOD OF INHIBITING HEPATIC STELLATE CELL ACTIVATION, METHOD OF DEACTIVATING HEPATIC STELLATE CELL, METHOD OF TREATING HEPATIC FIBROSIS, METHOD OF TREATING NON-ALCOHOLIC STEATOHEPATITIS, AND METHOD OF TREATING PSORIASIS” (Kurume University, priority 2023, published 2026).

Assays:
V-ATPase [1] = biological target: T1, V-ATPase (Bos taurus, UniProt P31404+P31408); test: Transmembrane potential generated (oxonol-V fluorescence quenching) in chromaffin granules; assay type: biochemical, cattle; conditions: role: substrate; addition of ATP, relative to before addition, N=2
T1 construct: Chromaffin granule membranes were prepared from adrenal glands collected from slaughtered cattle; from tissue; host or cells: cattle adrenal glands, chromaffin granule membranes (sucrose density gradient)
T1 sequence (P31404 whole entry, looked up): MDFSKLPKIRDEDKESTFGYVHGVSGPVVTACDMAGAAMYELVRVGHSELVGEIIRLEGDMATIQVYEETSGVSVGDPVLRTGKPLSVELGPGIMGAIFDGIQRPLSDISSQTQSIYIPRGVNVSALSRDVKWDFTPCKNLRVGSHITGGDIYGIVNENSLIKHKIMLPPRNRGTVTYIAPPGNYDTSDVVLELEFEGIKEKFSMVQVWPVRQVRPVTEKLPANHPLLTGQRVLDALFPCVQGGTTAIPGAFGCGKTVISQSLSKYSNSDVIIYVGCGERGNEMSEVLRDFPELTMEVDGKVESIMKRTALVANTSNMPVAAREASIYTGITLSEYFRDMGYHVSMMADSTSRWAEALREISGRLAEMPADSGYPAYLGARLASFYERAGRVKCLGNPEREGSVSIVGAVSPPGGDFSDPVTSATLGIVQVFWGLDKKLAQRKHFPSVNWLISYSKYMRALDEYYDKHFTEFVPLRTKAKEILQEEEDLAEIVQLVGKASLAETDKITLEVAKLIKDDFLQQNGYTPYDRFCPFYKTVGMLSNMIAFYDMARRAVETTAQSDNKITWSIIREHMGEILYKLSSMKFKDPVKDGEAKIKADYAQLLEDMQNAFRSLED
T1 sequence (P31408 whole entry, looked up): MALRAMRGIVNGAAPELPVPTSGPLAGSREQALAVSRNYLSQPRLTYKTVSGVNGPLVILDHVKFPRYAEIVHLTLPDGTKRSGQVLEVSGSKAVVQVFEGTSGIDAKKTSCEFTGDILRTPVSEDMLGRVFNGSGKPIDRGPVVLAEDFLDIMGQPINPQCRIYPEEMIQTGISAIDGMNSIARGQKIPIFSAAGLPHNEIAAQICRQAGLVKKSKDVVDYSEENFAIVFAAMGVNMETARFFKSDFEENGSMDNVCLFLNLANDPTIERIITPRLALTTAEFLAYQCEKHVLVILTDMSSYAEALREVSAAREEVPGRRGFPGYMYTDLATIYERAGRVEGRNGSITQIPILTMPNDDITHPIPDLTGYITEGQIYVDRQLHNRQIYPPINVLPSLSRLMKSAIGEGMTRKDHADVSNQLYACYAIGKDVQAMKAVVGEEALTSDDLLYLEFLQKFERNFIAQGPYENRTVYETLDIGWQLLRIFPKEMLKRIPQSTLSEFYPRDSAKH
Experimental: (§1) Chromaffin granule membranes were prepared from adrenal glands collected from slaughtered cattle according to Reference A (Nathan Nelson et al., 1988, Chromaffin Granule Proton Pump, Methods in Enzymology, 157, 619-633). Chromaffin granule membranes prepared by sucrose density gradient centrifugation were suspended in 2 ml of SME buffer (20 mM MOPS-tris (pH 7.0), 0.3 M sucrose, 5 mM EDTA, 10 μg/ml leupeptin, and 10 μg/ml pepstatin)+25% glycerol, and the resulting suspension was aliquoted and stored at −80° C. Under these conditions, the ATP transport activity, the V-ATPase activity, and the catecholamine transport activity remain fully active for at least one year.
ATP-dependent proton transport by V-ATPase was measured according to Reference B. Proton transport activity was measured using a spectrofluorometer at excitation wavelength of 492 nm and a fluorescence wavelength 540 nm, wherein fluorescence quenching of acridine orange was used as an index (N=2). The transmembrane potential generated was measured using a spectrofluorometer at an excitation wavelength of 580 nm and a fluorescence wavelength of 630 nm, wherein fluorescence quenching of oxonol-V was used as an index (N=2). […]

V-ATPase [2] = biological target: T1, V-ATPase; test: ATP-dependent proton transport by V-ATPase (acridine orange fluorescence quenching); assay type: biochemical, cattle; conditions: role: substrate; addition of ATP, relative to before addition, N=2
Experimental: as §1
ATP-dependent proton transport by V-ATPase was measured according to Reference B. Proton transport activity was measured using a spectrofluorometer at excitation wavelength of 492 nm and a fluorescence wavelength 540 nm, wherein fluorescence quenching of acridine orange was used as an index (N=2). The transmembrane potential generated was measured using a spectrofluorometer at an excitation wavelength of 580 nm and a fluorescence wavelength of 630 nm, wherein fluorescence quenching of oxonol-V was used as an index (N=2). The acridine measurement liquid (2 ml) contained 20 mM MOPS-tris (pH 7.0), 0.2 M sucrose, 0.1 M potassium chloride, 5 mM magnesium acetate, 0.2 μg valinomycin, 2 μM acridine orange, and about 20 μg of chromaffin granules. The oxonol-V measurement liquid (2 ml) contained 20 mM MOPS-tris (pH 7.0), 0.3 M sucrose, 5 mM magnesium acetate, 5 μM oxonol-V, and about 20 μg of chromaffin granules.
(§2) Chromaffin granule membrane vesicles were prepared in the same manner as in Example 5, and uptake of radiolabeled ATP into the vesicles was measured. Transport activity of catecholamine (dopamine) and ATP-dependent proton transport by V-ATPase were also measured in the same manner as in Example 5.

[3] = system: α-SMA-positive cells (stellate cells) in mouse liver; test: TAA-induced activation of HSCs in mice: α-SMA immunostaining of liver sections; assay type: in vivo
Source text: (§3) For immunohistochemical analysis, liver samples were fixed in 4% paraformaldehyde, embedded in paraffin, and then sectioned. The sections were stained with HE or PSR. In addition, the paraffin-embedded sections were subjected to immunostaining using an α-SMA monoclonal antibody (1:500, catalog No. A5228, manufactured by Sigma-Aldrich) and an F4/80 monoclonal antibody (1:200, catalog No. MCA497GA, manufactured by AbD Serotec). The cell specimens were observed using a microscope (BZ-X700 series, manufactured by Keyence) or a confocal laser microscope (FV1000, manufactured by Olympus Corporation). The number of F4/80-positive cells was counted in four high-power fields per section. The α-SMA-positive area and the PSR-positive area were quantified using the image analysis software Fiji-ImageJ (1.54f).
In accordance with Example 15, immunostaining of α-SMA in liver sections and observation by fluorescence microscopy were performed for the normal control group, the TAA group, and the TAA+IMG group, and for a TAA+Clo group, which was treated in the same manner as the TAA+IMG group except that clodronate, instead of imeglimin, was administered at 30 mg/kg by blending it in the drinking water from 1 week after the start of TAA administration.

mouse liver = test: Thioacetamide-induced hepatic fibrosis in mice: histology, immunostaining and fibrosis score; assay type: in vivo; conditions: TAA 50 mg/kg i.p. three times per week
Experimental: Wild-type mice, […] (manufactured by Charles River Japan), were housed on a 12-hour light/dark cycle and fed a standard solid diet (5.4% fat, CRF-1, manufactured by Oriental Yeast Co., Ltd.) ad libitum. Thioacetamide (TAA, manufactured by FUJIFILM Wako Pure Chemical Corporation) was dissolved in physiological saline at 0.9% w/v. Eight-week-old mice were randomly assigned to three groups and continuously treated for 9 weeks according to the following scheme. At Week 9, all mice were euthanized 1 hour after administration of physiological saline or IMG.
Normal control group (N=6): Physiological saline was intraperitoneally administered to mice three times per week. Eight hours after each administration, a vehicle was orally administered to the mice.
TAA group (N=6): TAA (50 mg/kg, intraperitoneal) was administered to mice. Eight hours thereafter, physiological saline was orally administered to the mice. This treatment was performed three times per week for a total of 9 weeks.
TAA+IMG group (N=6): During the first week, physiological saline was orally administered to mice. Thereafter, imeglimin (IMG) at 200 mg/kg was orally administered three times per week for 8 weeks. The administration of IMG was performed 8 hours after intraperitoneal administration of TAA (50 mg/kg).
as §3
A histological score was determined by a blinded investigator using the NAFLD histological scoring system of the Nonalcoholic Steatohepatitis Clinical Research Network. The total NAFLD activity score (NAS) was calculated from the total of the individual scores for steatosis ([…]), lobular inflammation (F4/80), and hepatocyte ballooning. The range of each parameter was 0 to 2 (ballooning) or 3 (the other two scores), where 0 indicates normal and 2 or 3 indicates severe. Staging of fibrosis was based on the NASH fibrosis stages, and a fibrosis stage ranging from 0 to 4 was determined according to Reference H (David E. Kleiner et al., 2005, Design and validation of a histological scoring system for nonalcoholic fatty liver disease, Hepatology, 41, 1313-1321).
All results are expressed as the mean±standard error of the mean (S.E.M.). Statistical analyses were performed using GraphPad Prism 7.0 (GraphPad Software). Significance upon comparison between two groups was evaluated by an unpaired two-tailed Student's t-test. […]. Statistical significance among three or more groups was determined by two-way analysis of variance (ANOVA) with Tukey's or Dunnett's post hoc test. Coloc2 was used to perform image analysis, automatic thresholding, and pixel intensity correlation for statistical processing. Statistical significance was assumed when the P value was <0.05.

keratinocytes = test: Imiquimod-induced ATP secretion in keratinocytes; assay type: cell-based, human; conditions: imiquimod 1 μg/ml or 0.5 μg/ml, 15 minutes, N=8 (FIG. 32)
Experimental: In the same manner as in Example 1, keratinocytes were cultured at 2.5×10^4 cells/well in a 24-well plate at 37° C. in 5% CO2 for 4 days. The medium was replaced with HBSS (manufactured by Gibco) supplemented with 1 μM or 10 μM imeglimin, and incubation was performed at 37° C. in 5% CO2 for 18 hours. Thereafter, imiquimod was added thereto at 1 μg/ml or 0.5 μg/ml, and incubation was performed for 15 minutes, followed by collection of 200 μl of the supernatant. The supernatant was immediately treated on a heat block at 95° C. for 10 minutes, and ATP in the supernatant was quantified using a ATP Assay Kit—Luminescence (manufactured by Dojindo) (N=8).

mouse auricle [4] = test: Imiquimod-induced psoriasis model, oral imeglimin (Example 18); assay type: in vivo; conditions: 62.5 mg of 5% imiquimod cream daily, Days 1 to 7 (disease inducer)
Experimental: Experimental psoriatic symptoms were induced in a mouse auricle by imiquimod. Six-week-old male C57BL/6 mice (N=5) were acclimated for one week. On Days 1 to 7, 62.5 mg of 5% imiquimod cream (Beselna Cream 5%) (3.125 mg in terms of the active ingredient, manufactured by Mochida Pharmaceutical Co. Ltd.) was applied to the right auricle of the mice for 7 consecutive days (IMQ group). Once daily after the imiquimod application, the imeglimin administration group (IMQ+IMG group) received oral administration, at 40 mg/kg, of 500-mg Twymeeg (trademark) tablets (manufactured by Sumitomo Pharma Co. Ltd.) dissolved in physiological saline. The control group received an equal volume of physiological saline. On Day 8, the mice were euthanized by cervical dislocation, and auricle thickness was measured using a dial thickness gauge (manufactured by Adachi Sogyo Co., Ltd.).
Each excised mouse auricle was fixed in 4% paraformaldehyde at 4° C. overnight. After ethanol substitution, the auricle was embedded in paraffin, sectioned using a rotary microtome Leica RM2165 (thickness, […]), and subjected to HE staining or immunohistochemical staining. For the immunohistochemical staining, the sections were deparaffinized, washed in xylene, and rehydrated through graded alcohols. The sections were incubated in DAKO at 95° C. for 30 minutes. The sections were blocked at room temperature for 60 minutes and then incubated at room temperature for 2 hours to allow reaction with a TGM1 anti-rabbit polyclonal antibody (catalog number 12912-3-AP, manufactured by Proteintech). The sample was washed and then allowed to react with a secondary antibody (Alexa 544-conjugated secondary antibody (goat anti-rabbit IgG) (manufactured by Molecular Probes)) at room temperature for 60 minutes. After allowing reaction with DAPI at room temperature for 10 minutes, the sections were mounted with Fluoromount and imaged using a fluorescence microscope (BZ-X710, manufactured by Keyence).

mouse auricle [5] = test: Imiquimod-induced psoriasis relapse model (Example 20); assay type: in vivo; conditions: 5% imiquimod cream resumed on Day 23, vs first induction
Experimental: To the left auricle of each mouse, 62.5 mg of 5% imiquimod cream (Beselna Cream 5%) was applied once daily a total of seven times (Days 1 to 7) in accordance with Example 19 to induce imiquimod-induced psoriasis. Thereafter, the imiquimod treatment was interrupted, and imeglimin (40 mg/kg) was orally administered on alternate days for 2 weeks (Day 8 to 22) (IMG). Mice without administration of imeglimin were designated IMQ. On Day 23, the imiquimod treatment was resumed, and 62.5 mg of 5% imiquimod cream (Beselna Cream 5%) was applied once daily a total of […]. In parallel, imeglimin (40 mg/kg) was orally administered daily to IMG.

[6] = system: catecholamine transport of chromaffin granule membranes; test: Catecholamine (dopamine) transport in chromaffin granule membranes; assay type: biochemical, cattle; conditions: role: inhibitor; 1 μM reserpine
Experimental: as §1
A catecholamine transport inhibition experiment was carried out in the same manner as the ATP transport experiment except that the experiment used a measurement liquid containing 20 mM MOPS-tris (pH 7.0), 0.1 M sucrose, 0.1 M potassium chloride, 5 mM magnesium acetate, and about 5 μg of chromaffin granule membranes. To 0.5 ml of the measurement liquid, 2 mM ATP was added, and the resulting mixture was incubated at 30° C. for about 5 minutes, followed by addition of 3[H]-dopamine thereto to a final concentration of 10 μM. After further incubation at 30° C. for 15 minutes, 0.2 ml of the reaction liquid was subjected to suction filtration through a Millipore MCE membrane filter with a pore size of 0.45 μm, and the radioactivity on the filter was measured (N=3). The substrate, 3[H]-dopamine, was prepared by mixing 3,4-[RING-2,5,6-^3H]dihydroxyphenylethylamine (dopamine) (30 Ci/mmol) (manufactured by New England Nuclear) with dopamine hydrochloride (manufactured by LKT Laboratories) such that a final concentration of […] was achieved during the use.
as §2

`Nc1ncnc2c1ncn2[C@@H]1O[C@H](COP(=O)(O)OP(=O)(O)OP(=O)(O)O)[C@@H](O)[C@H]1O` [ATP, adenosine triphosphate] was tested, and the “quenching of oxonol-V fluorescence” value (V-ATPase [1]) was 40% and the “quenching of acridine orange fluorescence” value (V-ATPase [2]) was 62%.
For `CC(=N)S` [TAA, Thioacetamide], the “α-SMA-positive reaction throughout the mouse liver” value ([3]; TAA 50 mg/kg i.p. (FIG. 29)) was “increased markedly”, the α-SMA-positive area fraction ([3]; TAA group (disease inducer, 50 mg/kg i.p.), four measurements, normal control 0.14±0.01) was 2.79±0.33 and the “reaction of F4/80-positive macrophages” value (mouse liver; 9 weeks (disease inducer)) was “markedly increased”. For the same molecule, the α-SMA-positive reaction (mouse liver; 9 weeks (disease inducer)) was “markedly increased”, the HE-stained liver tissue (mouse liver; 9 weeks, vs normal control) was “destruction of the lobular structure, hepatocyte ballooning, and inflammatory cell infiltration” and the fibrosis score (mouse liver; 9 weeks, vs normal control (FIG. 28)) was “markedly increased”.
For `CC(C)Cn1cnc2c(N)nc3ccccc3c21` [imiquimod], the “ATP secretion from the keratinocytes” value (keratinocytes) was “markedly promoted”, the auricle thickening (mouse auricle [4]) was “auricle thickening induced” and the “psoriatic symptoms in the epidermis” value (mouse auricle [4]) was “caused psoriatic symptoms in the epidermis, leading to partial desquamation”. The “psoriatic symptoms on resumed treatment” value (mouse auricle [5]) was “induced more rapidly and more strongly than at the first induction”.
`COC(=O)[C@H]1[C@H]2C[C@@H]3c4[nH]c5cc(OC)ccc5c4CCN3C[C@H]2C[C@@H](OC(=O)c2cc(OC)c(OC)c(OC)c2)[C@@H]1OC` [reserpine] was tested, and the ATP-dependent dopamine transport [6] was “almost completely blocked”.
